From article PMC2994877, “A Full Pharmacological Analysis of the Three Turkey β-Adrenoceptors and Comparison with the Human β-Adrenoceptors” (PLoS ONE, 2010)
Read-outs that look alike come from different tables or passages of the source. Marks after values point to notes of the source that are not given here.

What was measured:
[1] = molecular target: T1, turkey β3C-adrenoceptor (tβ3C) (Meleagris gallopavo, UniProt A0A803YLI8); assay: 3H-CGP12177 whole cell binding, CHO tβ3C cells
[2] = molecular target: T2, turkey β4C-adrenoceptor (tβ4C) (Meleagris gallopavo, UniProt P43141); assay: cell-based; type: binding
T2 construct: expressed in transfected cells
T2 sequence (P43141 whole entry): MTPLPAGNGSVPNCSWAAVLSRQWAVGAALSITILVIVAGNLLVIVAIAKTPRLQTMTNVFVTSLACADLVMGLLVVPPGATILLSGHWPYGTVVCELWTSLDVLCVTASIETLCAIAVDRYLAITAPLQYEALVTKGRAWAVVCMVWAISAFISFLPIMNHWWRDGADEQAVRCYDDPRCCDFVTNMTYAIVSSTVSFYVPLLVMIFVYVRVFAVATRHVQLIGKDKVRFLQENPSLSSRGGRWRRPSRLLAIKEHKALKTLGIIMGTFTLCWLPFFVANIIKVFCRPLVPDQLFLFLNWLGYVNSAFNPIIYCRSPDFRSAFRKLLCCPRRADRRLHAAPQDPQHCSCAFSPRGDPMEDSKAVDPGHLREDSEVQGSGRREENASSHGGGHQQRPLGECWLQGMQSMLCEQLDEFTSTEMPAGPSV

[3] = molecular target: T1, turkey β3C-adrenoceptor (tβ3C); assay: CRE-SPAP production, CHO tβ3C cells; type: cell-based; details: for Emax: read-out: % isop max
[4] = molecular target: T2, turkey β4C-adrenoceptor (tβ4C); assay: cell-based; type: cell-based; details: for % isop max: CRE-SPAP, % of 10 µM isoprenaline maximum
[5] = molecular target: Human β1-adrenoceptor; parameters: method as in PMID 15655528, PMID 20590599; details: Human β1, given for comparison; ref 25 and 30; cited from earlier work
[6] = molecular target: Human β2-adrenoceptor; parameters: method as in PMID 15655528, PMID 20590599; details: Human β2, given for comparison; ref 25 and 30; cited from earlier work
[7] = molecular target: Human β3-adrenoceptor; details: cited from earlier work
[8] = molecular target: T2, turkey β4C-adrenoceptor (tβ4C); assay: 3H-cAMP accumulation, CHO tβ4C cells; type: cell-based; details: for % isop max: 3H-cAMP, overall response as % of 10 µM isoprenaline; for % site 1: % of response occurring via site 1, tβ4C
[9] = test system: parent CHO CRE-SPAP cells; assay: agonist response in parent CHO CRE-SPAP cells; type: cell-based
Source text: The second piece of pharmacological evidence for more than one conformation is the concentrations of antagonists required to inhibit the CGP12177-stimulatory response. […] This is similar to observations at the β1-adrenoceptor in rodents and mammals [6]–[7] [9] [11]. […] There was no response to any ligands, including CGP12177 in the parent CHO CRE-SPAP cells and thus the CGP12177 agonist response was not occurring at a different receptor natively expressed in the cells.

[10] = molecular target: T1, turkey β3C-adrenoceptor (tβ3C)
[11] = molecular target: T1, turkey β3C-adrenoceptor (tβ3C); assay: cell-based
[12] = test system: parent CHO cells; assay: 3H-cAMP accumulation, parent CHO cells; details: parent CHO cells without transfected receptor
[13] = test system: parent CHO cells; assay: 3H-CGP12177 binding, parent CHO cells; details: parent CHO cells without transfected receptor
Protocol: Cells were grown to confluence in white-sided tissue culture treated 96-well view plates. ^3H-CGP12177 whole cell binding was performed as previously described. […] For competition binding, the media was removed from each well, 100 µl of serum-free media containing the competing ligand at twice the final required concentration was added to each well followed immediately by a 100 µl of a fixed concentration of ^3H-CGP12177 (1∶2 dilution in well, final well concentrations of 1.24 nM to 12.10 nM). The cells were incubated for 2 hours at 37°C, 5% CO2 humidified atmosphere. For all plates, the cells were washed twice by the addition and removal of 200 µl 4°C phosphate buffered saline. 100 µl Microscint 20 was added to each well, a white sticky base applied to the underside and a sealant top applied to the top of the plate. The plates were left at room temperature overnight in the dark and the plates counted on a Topcount at 21°C for 2 minutes per well.

[14] = competition with 3H-CGP12177, whole cells, CHO tβ4C, given as log KD, mean ± s.e.m., read-out: Log KD (converted)
[15] = CRE-SPAP production, CHO tβ4C cells, read-out: Log EC50 (converted)
[16] = Human β3, given for comparison, ref 25 and 30
[17] = competition with 3H-CGP12177, whole cells, CHO tβ3C, given as log KD, mean ± s.e.m.
[18] = competition with 3H-CGP12177, whole cells, CHO tβ4C, given as log KD, mean ± s.e.m.
[19] = competition with 3H-CGP12177, whole cells, CHO tβ3C, given as log KD, mean ± s.e.m., read-out: Log KD (converted)

T1 sequence (A0A803YLI8 entry or part of it): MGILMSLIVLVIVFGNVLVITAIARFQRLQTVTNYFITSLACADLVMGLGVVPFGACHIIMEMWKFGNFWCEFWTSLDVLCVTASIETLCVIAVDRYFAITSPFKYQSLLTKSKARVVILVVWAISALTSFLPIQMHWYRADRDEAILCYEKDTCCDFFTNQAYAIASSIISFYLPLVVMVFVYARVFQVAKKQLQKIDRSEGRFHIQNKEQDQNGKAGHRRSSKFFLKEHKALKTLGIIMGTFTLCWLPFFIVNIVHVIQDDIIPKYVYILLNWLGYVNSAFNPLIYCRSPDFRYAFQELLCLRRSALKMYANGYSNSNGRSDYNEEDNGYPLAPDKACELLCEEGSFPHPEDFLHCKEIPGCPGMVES

Compound | Kd [1] [nM] | Kd [2, 14] [nM] | % isop max ([4]; CHO tβ4C cells) [%] | Log KD [5] | Log KD [6] | Log KD [7, 16] | other results
CNC[C@H](O)c1ccc(O)c(O)c1 [Adrenaline] | 1550 | 1700 | 99.6±2.7 | −5.15 | −6.13 | −4.70 | EC50 [3]: 63.1 nM; Emax [3]: 106 ± 2.7%; EC50 [4, 15]: 191 nM
Br.COC(=O)COc1ccc(CC(C)NC[C@H](O)c2cccc(Cl)c2)cc1 (stereo partly shown) [BRL35135A] | – | – | – | −6.08 | −7.38 | −6.73 | Log KD [1, 17]: −7.42±0.06; Log KD [2, 18]: −6.39±0.03
C[C@H](Cc1ccc(OCC(=O)O)cc1)NC[C@H](O)c1cccc(Cl)c1 [BRL37344] | – | – | 97.1±3.0 | −5.19 | −6.51 | −6.45 | Log KD [1, 17]: −6.28±0.06; Log KD [2, 18]: −5.89±0.10; Log EC50 ([3]; CRE-SPAP production, CHO tβ3C cells): −7.67±0.04; % isop max ([3]; CRE-SPAP, % of 10 µM isoprenaline maximum, CHO tβ3C cells): 88.5±4.2%; Log EC50 ([4]; CRE-SPAP production, CHO tβ4C cells): −7.15±0.07
CC(C)(Cc1c[nH]c2ccccc12)NCC(O)COc1ccccc1C#N (stereo not shown) [Bucindolol] | 0.191 | 0.389 | – | −9.31 | −9.99 | −8.04 | –
COc1ccc(OC)c(C(O)C(C)NC(C)(C)C)c1 (stereo not shown) [Butoxamine] | 1020 | 12600 | – | −4.85 | −6.23 | >−4 | –
CC(C)(C)NCC(O)COc1cccc2[nH]c(=O)[nH]c12 (stereo not shown) [CGP12177] | – | – | 53.4±2.2 | – | – | – | % isop max ([8]; tβ4C): 17.4±0.7%; % site 1 [8]: 41.3±7.2%; agonist response [9]: no response
CC(C)(C)NCC(O)c1cc(Cl)c(N)c(Cl)c1 (stereo not shown) [Clenbuterol] | 41.7 | – | 97.2±1.9 | −6.62 | −7.90 | −5.35 | Kd [2]: 363 nM; EC50 [3]: 0.525 nM; Emax [3]: 97.8 ± 4.4%; EC50 [4]: 40.7 nM
CC(CCc1ccc(O)cc1)NCCc1ccc(O)c(O)c1 (stereo not shown) [Dobutamine] | – | 1000 | 110.4±2.4 | −5.23 | −5.84 | −5.09 | Kd [1, 19]: 2690 nM; EC50 ([3]; CRE-SPAP production, CHO tβ3C cells, read-out: Log EC50 (converted)): 427 nM; Emax [3]: 101 ± 3.7%; EC50 [4, 15]: 158 nM
CC(Cc1ccc(O)cc1)NCC(O)c1cc(O)cc(O)c1 (stereo not shown) [Fenoterol] | 204 | – | – | −5.04 | −7.03 | −5.39 | Kd [2]: 603 nM; EC50 [3]: 0.832 nM; EC50 [4]: 8.51 nM
CCCCCCNC(=O)Nc1ccc(S(=O)(=O)Nc2ccc(CCNC[C@H](O)COc3ccc(O)cc3)cc2)cc1 [L755507] | – | – | – | −6.23 | −6.83 | – | Log KD [1, 17]: −6.56±0.06; Log KD [2, 18]: −7.63±0.11; Log KD ([7]; Human β3, binding to site 1): −8.60 ^*
CC(C)NCC(O)c1cc(O)cc(O)c1 (stereo not shown) [Metaproterenol] | – | 7410 | – | −4.71 | −5.30 | −4.06 | Kd [1, 19]: 4170 nM
CC(C)(C)NCC(O)COc1cccc2c1CC(O)C(O)C2 (stereo not shown) [Nadolol] | – | 18.2 | – | −7.23 | −8.60 | −6.18 | Kd [1, 19]: 11.2 nM
NC[C@H](O)c1ccc(O)c(O)c1 [Noradrenaline] | 11500 | 501 | 102.3±2.5 | −5.74 | −5.41 | −5.53 | EC50 [3]: 417 nM; Emax [3]: 102 ± 3%; EC50 [4, 15]: 81.3 nM
CC(C)NCC(O)c1ccc2ccccc2c1 (stereo not shown) [Pronethalol] | – | – | – | −6.44 | – | −5.89 | Kd [1, 19]: 102 nM; Kd [2]: 87.1 nM
CC(CCc1ccc(O)cc1)NCC(O)c1ccc(O)cc1 (stereo not shown) [Ractopamine] | 224 | 269 | – | −6.97 | – | −5.82 | –
CC(C)(C)NC[C@H](O)COc1cccc2[nH]c(C#N)cc12 [S-Cyanopindolol] | 0.00427 | – | – | – | – | −8.36 | shape of agonist concentration response ([8]; 3H-cAMP accumulation, tβ4C): two component response; % isop max ([8]; tβ4C): 16.4±2.7%; % site 1 [8]: 44.4±2.0%; shape of agonist concentration response ([10]; 3H-cAMP accumulation, tβ3C): one-component response; Log EC502 ([10]; 3H-cAMP accumulation, tβ3C, one-component response (same value as EC501)): −10.60±0.13; % site 1 ([10]; % of response occurring via site 1, tβ3C): 100%; EC50 [11]: 0.0251 nM; Emax ([11]; read-out: % isop max): 4.6 ± 0.7%
O=C(O)Cc1ccc(OCCNC[C@H](O)c2ccccc2)cc1 [ZD2079] | – | > 100000 | – | −4.21 | >−4 | −4.59 | Kd [1, 19]: > 100000 nM
C=C[C@@]1(C)CC(=O)[C@]2(O)[C@@]3(C)[C@@H](O)CCC(C)(C)[C@@H]3[C@H](O)[C@H](OC(C)=O)[C@@]2(C)O1 [forskolin] | – | – | – | – | – | – | 3H-cAMP accumulation response [12]: 21.5±2.2 fold over basal
CC(C)(Cc1ccccc1)NCC(O)c1ccc(O)c(NS(C)(=O)=O)c1 (stereo not shown) [zinterol] | 24 | 158 | – | −5.96 | −8.04 | −6.27 | –
^3H-CGP12177 | – | – | – | – | – | – | Kd ([1]; read-out: KD of 3H-CGP12177, saturation binding, stable CHO tβ3C cell line): 0.29 ± 0.02 nM; Kd ([2]; read-out: KD of 3H-CGP12177, saturation binding, stable CHO tβ4C cell line): 0.58 ± 0.06 nM; specific binding of 3H-CGP12177 [13]: no specific binding
